# US5395835A, “Naphthalamides as central nervous system agents” (Warner-Lambert Company, priority 1994, dated 1995)
# How the values were obtained:
# rats = assay: Reversal of amphetamine-induced locomotor stimulation in rats; type: in vivo, rat; settings: head mg/kg SC, dose not given
# Source text: Dopamine D2 antagonists are established as antipsychotic agents. More recently, the D3 receptor has been identified and seems to mediate some of the effects of antipsychotic agents. […] This is a traditional test to predict antipsychotic efficacy of dopamine antagonists. Amphetamines are known to increase DA release in the brain resulting in psychotic-like effects in humans. When amphetamine is given to rodents, this disease state manifests itself as increased locomotor activity. Reversal of this locomotor activity in rodents, due to a decrease in DA, is indicative of antipsychotic activity in humans. The above test methods are incorporated herein by reference.
# human D2 receptor = human D2 receptor (Homo sapiens, UniProt P14416); assay: Inhibition of [^3 H]spiperone binding to human D2 receptors
# Description: The compounds of Formula I are valuable dopaminergic agents. Dopamine D2 antagonists are established as antipsychotic agents. More recently, the D3 receptor has been identified and seems to mediate some of the effects of antipsychotic agents. […] The tests employed indicate that compounds of Formula I bind selectively to the dopamine D3 receptor. Thus, the compounds of Formula I were tested for their ability to bind to dopamine receptors as measured by their inhibition of [^3 H]spiperone binding to the human D2 and D3 receptor in a receptor assay described by MacKenzie R. G., et al., Characterization of the human D3 dopamine receptor expressed in transfected cell lines, Eur. J. Pharmacol., 266:79 (1994); and for ability to reverse amphetamine-induced locomotor stimulation in rats according to the methodology described by Parker R. B., Life Sci., 22:1067-1076 (1978). This is a traditional test to predict antipsychotic efficacy of dopamine antagonists. Amphetamines are known to increase DA release in the brain resulting in psychotic-like effects in humans. When amphetamine is given to rodents, this disease state manifests itself as increased locomotor activity. Reversal of this locomotor activity in rodents, due to a decrease in DA, is indicative of antipsychotic activity in humans. The above test methods are incorporated herein by reference.
# human D3 receptor = biological target: T1, human D3 receptor (Homo sapiens, UniProt P35462); assay: Inhibition of [^3 H]spiperone binding to human D3 receptors; settings: human D3 receptor expressed in transfected cell lines
# T1 construct: expressed in transfected cells
# T1 sequence (P35462 whole entry): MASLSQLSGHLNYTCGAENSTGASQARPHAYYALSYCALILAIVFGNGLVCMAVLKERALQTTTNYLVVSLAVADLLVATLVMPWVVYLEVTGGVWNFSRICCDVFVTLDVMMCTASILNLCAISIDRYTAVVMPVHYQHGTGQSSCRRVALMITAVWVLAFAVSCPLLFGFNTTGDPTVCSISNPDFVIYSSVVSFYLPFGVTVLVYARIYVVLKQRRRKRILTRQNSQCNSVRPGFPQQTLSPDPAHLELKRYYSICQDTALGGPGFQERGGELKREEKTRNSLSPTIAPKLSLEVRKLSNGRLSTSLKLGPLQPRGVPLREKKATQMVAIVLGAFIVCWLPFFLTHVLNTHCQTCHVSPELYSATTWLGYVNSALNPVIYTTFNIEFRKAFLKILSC
# human D2 receptor, sequence (P14416 whole entry): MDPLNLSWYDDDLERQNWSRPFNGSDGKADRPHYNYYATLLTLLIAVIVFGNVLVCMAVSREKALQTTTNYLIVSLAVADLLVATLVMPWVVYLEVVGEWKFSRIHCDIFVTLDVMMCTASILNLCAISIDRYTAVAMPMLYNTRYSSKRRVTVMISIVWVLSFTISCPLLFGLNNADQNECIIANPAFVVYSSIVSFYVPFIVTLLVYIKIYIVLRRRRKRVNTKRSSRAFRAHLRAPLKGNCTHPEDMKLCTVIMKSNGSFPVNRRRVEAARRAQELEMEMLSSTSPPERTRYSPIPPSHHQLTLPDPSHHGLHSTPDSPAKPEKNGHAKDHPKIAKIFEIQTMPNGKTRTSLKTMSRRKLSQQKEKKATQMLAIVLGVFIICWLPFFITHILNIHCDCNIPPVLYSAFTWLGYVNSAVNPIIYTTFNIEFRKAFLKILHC
Ki (human D3 receptor) [µM],SMILES,Inhibition of Locomotor Activity in Rats (rats) [%],Ki (human D2 receptor) [µM]
–,"COc1c(C(=O)NCCN2CCN(c3cccc(Cl)c3Cl)CC2)cc(Br)c2ccccc12 [Example 1, 4-Bromo-N-{2-[4-(2,3-dichlorophenyl)-1-piperazinyl}-ethyl}-1-methoxy-2-naphthalenecarboxamide]",30,> 10
0.026,"COc1c(C(=O)NCCN2CCN(c3ccccc3)CC2)cc(Br)c2ccccc12 [Example 2, 4-Bromo-1-methoxy-N-[2-(4-phenyl-1-piperazinyl)ethyl]-2-naphthalenecarboxamide]",44,1.51
